Results on 14 compounds are retold here after patent US9517988B2 (Sichuan Haisco Pharmaceutical Co., Ltd., priority 2013, dated 2016).

Structures can show the parent of a compound that is named as a salt. Where two headings read alike, the source gives them in different places. Some results are limits rather than exact numbers.

The nature of data set [1]: Righting reflex experiment on mice with prodrugs. In kind it is in vivo. The settings on record: ICR, mouse, in vivo, mice; for MTD: prodrugs; for LD50: intravenous injection, prodrugs in physiological saline. Here is the method:
(§1) After adapting to the laboratory environment, the SPF-grade ICR mice were fasted for 12 hours.

Data set [2] deals with ICR mice. The data set can be described thus: Righting reflex experiment on mice with prodrugs. It counts as in vivo. Conditions: for ED50: Mus musculus; for SI: safety index, LD5/ED95, mice; for TI: therapeutic index, LD50/ED50, mice. As for the experimental part:
as §1

Setting [3] is: mice, intravenous injection, prodrugs formulated with physiological saline, read-out: ED50.
[4] abbreviates: mice, intravenous injection, prodrugs.

Usually LD50 stands for the dose at which mortality reaches 50%. In general, ED50 refers to the midpoint of the dose-response relation. Regarding `CC(C)c1cccc([C@H](C)C2CC2)c1OCOC(=O)C(NC(=O)OC(C)(C)C)C(C)C` (stereo in doubt) [Compound 57, [2-[(1R)-1-cyclopropylethyl]-6-isopropyl-phenoxy]methyl(2R)-2-(tertbutoxycarbonylamino)-3-methyl-butanoate], the MTD in data set [1] (both sexes, intravenous) worked out at 80 mg/kg. Further, the LD50 in data set [1] (both sexes) was determined as 120 mg/kg. Moreover, the ED50 in data set [2] (setting [3]) stood at 36.7 mg/kg. In data set [2] (setting [4]), the Anesthesia induction time is reported as 135.8 s and the Anesthesia maintenance time came to 1931.2 s. Also, in data set [2] (prodrugs), the SI is on record as 1.3 and the TI worked out at 3.3.

Consider `CC(C)c1cccc([C@H](C)C2CC2)c1OCOP(=O)(OCOC(=O)C(C)(C)C)OCOC(=O)C(C)(C)C` [Compound 35, [[2-[(1R)-1-cyclopropylethyl]-6-isopropyl-phenoxy]methoxy-(2,2-dimethylpropanoyloxymethoxy)phosphoryl]oxymethyl 2,2-dimethylpropanoate], for which, in data set [1] (both sexes), the LD50 came to 200 mg/kg and the MTD turned out to be 200 mg/kg. In addition, the ED50 in data set [2] (iv) is 39.3 mg/kg. Also, in data set [2] (setting [4]), the Anesthesia induction time is reported as less than 15.0 s and the Anesthesia maintenance time is given as 1915.5 s. In addition, in data set [2] (prodrugs), the SI was determined as 4.9 and the TI turned out to be 5.1.

Take `CC(=O)Oc1ccccc1C(=O)OCOc1c(C(C)C)cccc1[C@H](C)C1CC1` [Compound 38, [2-[(1R)-1-cyclopropylethyl]-6-isopropyl-phenoxy]methyl 2-acetoxybenzoate]: in data set [1] (both sexes, intravenous), the MTD turned out to be 50 mg/kg. Moreover, in data set [1] (both sexes), the LD50 was 80 mg/kg. Further, the ED50 in data set [2] (setting [3]) was 26.1 mg/kg. In data set [2] (setting [4]), the Anesthesia induction time came to 141.0 s and the Anesthesia maintenance time turned out to be 478.9 s. Also, in data set [2] (prodrugs), the SI amounted to 1.3 and the TI is reported as 3.1.

Consider `CC(C)c1cccc([C@H](C)C2CC2)c1OCOP(=O)([O-])[O-].[K+].[K+]` [Compound 45], for which the MTD in data set [1] (both, intravenous) is 50 mg/kg. For the same compound, the LD50 in data set [1] (both) is 72.6 mg/kg.

For the compound `CC(C)c1cccc([C@H](C)C2CC2)c1OCOC(=O)c1cccnc1` [Compound 51, [2-[(1R)-1-cyclopropylethyl]-6-isopropyl-phenoxy]methylpyridine-3-carboxylate], the MTD in data set [1] (both sexes, intravenous) came out at 40 mg/kg. In addition, the LD50 in data set [1] (both sexes) worked out at 80 mg/kg. In addition, the ED50 in data set [2] (setting [3]) was 28.3 mg/kg. For the same compound, in data set [2] (setting [4]), the Anesthesia induction time was 159.0 s and the Anesthesia maintenance time was 1159.9 s. In addition, in data set [2] (prodrugs), the SI worked out at 1.2 and the TI is given as 2.8.

With `CC(C)C[C@H](N)C(=O)OCOc1c(C(C)C)cccc1[C@H](C)C1CC1` [Compound 60, [2-[(1R)-1-cyclopropylethyl]-6-isopropyl-phenoxy]methyl(2S)-2-amino-4-methyl-pentanoate trifluoroacetate], the MTD in data set [1] (both sexes, intravenous) was 50 mg/kg. Moreover, the LD50 in data set [1] (both sexes) amounted to 79.6 mg/kg. Further, in data set [2] (setting [3]), the median effective dose (ED50) was 13.8 mg/kg. In addition, in data set [2] (setting [4]), the Anesthesia induction time worked out at 6.0 s and the Anesthesia maintenance time is given as 1473.0 s. In data set [2] (prodrugs), the SI turned out to be 3.1 and the TI came out at 5.8.

As for `CC(C)c1cccc([C@H](C)C2CC2)c1OCOC(=O)[C@@H](N)Cc1ccccc1` [Compound 62, [2-[(1R)-1-cyclopropylethyl]-6-isopropyl-phenoxy]methyl(2S)-2-amino-3-phenylpropanoate trifluoroacetate], the MTD in data set [1] (both sexes, intravenous) was 30 mg/kg. The LD50 in data set [1] (both sexes) was 45.6 mg/kg. Moreover, the ED50 in data set [2] (setting [3]) turned out to be 7.7 mg/kg. Besides, in data set [2] (setting [4]), the Anesthesia induction time is recorded as less than 15.0 s and the Anesthesia maintenance time was determined as 696.9 s. The “ED50 and efficacy compared with propofol” value in data set [2] (mice, prodrugs) is “smaller ED50 value and higher efficacy than propofol”. Also, in data set [2] (prodrugs), the SI stood at 1.6 and the TI amounted to 5.9.

In the case of `CC(C)c1cccc([C@@H](C)C2CC2)c1OCOP(=O)([O-])[O-].[Na+].[Na+]` [Compound 65], the MTD in data set [1] (both sexes, intravenous) worked out at 200 mg/kg. For the same compound, the LD50 in data set [1] (both sexes) was 370 mg/kg. The ED50 in data set [2] (setting [3]) was 82.7 mg/kg. Besides, in data set [2] (setting [4]), the Anesthesia induction time is 82.5 s and the Anesthesia maintenance time was determined as 3278.0 s. For the same compound, in data set [2] (prodrugs), the SI amounted to 2.9 and the TI was 4.5.

Take `CC(C)c1cccc([C@H](C)C2CCC2)c1OCOP(=O)([O-])[O-].[Na+].[Na+]` [Compound 74]: the MTD in data set [1] (both, intravenous) amounted to 120 mg/kg. For the same compound, the LD50 in data set [1] (both) came to 192 mg/kg. The ED50 in data set [2] (setting [3]) stood at 48.3 mg/kg. Besides, in data set [2] (setting [4]), the Anesthesia induction time came out at 96.5 s and the Anesthesia maintenance time was 2378.3 s. In data set [2] (prodrugs), the SI worked out at 2.5 and the TI amounted to 4.0.

As to `C[C@@H](c1cccc([C@H](C)C2CC2)c1OCOP(=O)(O)O)C1CC1` [Compound 75, sodium (2,6-bis((R)-1-cyclopropylethyl)phenoxy)methyl phosphate], the MTD in data set [1] (both sexes, intravenous) stood at 30 mg/kg. Moreover, the LD50 in data set [1] (both sexes) was 42.4 mg/kg. Also, in data set [2] (setting [3]), the ED50 turned out to be 11.7 mg/kg. Also, in data set [2] (setting [4]), the Anesthesia induction time came to 129.2 s and the Anesthesia maintenance time came out at 2070.4 s. In data set [2] (prodrugs), the SI amounted to 2.3 and the TI is given as 3.6.

As for `C[C@H](c1cccc([C@H](C)C2CC2)c1OCOP(=O)(O)O)C1CC1` [Compound 76, sodium (2-((R)-1-cyclopropylethyl)-6-((S)-1-cyclopropylethyl)phenoxy)methyl phosphate], the MTD in data set [1] (both sexes, intravenous) was 80 mg/kg. In data set [1] (both sexes), the LD50 came out at 143 mg/kg. In data set [2] (setting [3]), the ED50 was 35.8 mg/kg. In data set [2] (setting [4]), the Anesthesia induction time worked out at 111.8 s and the Anesthesia maintenance time is 1992.8 s. In data set [2] (prodrugs), the SI turned out to be 2.5 and the TI is 4.0.

Regarding `C[C@H](c1cccc([C@@H](C)C2CC2)c1OCOP(=O)(O)O)C1CC1` [Compound 77, sodium (2,6-bis((S)-1-cyclopropylethyl)phenoxy)methyl phosphate], in data set [1] (both sexes, intravenous), the MTD was 160 mg/kg. In data set [1] (both sexes), the LD50 stood at 274 mg/kg. Besides, the ED50 in data set [2] (setting [3]) is 94.7 mg/kg. In data set [2] (setting [4]), the Anesthesia induction time is 175.4 s and the Anesthesia maintenance time was 1859.1 s. Moreover, in data set [2] (prodrugs), the SI amounted to 1.7 and the TI amounted to 2.9.

Consider `CC[C@@H](C)c1cccc([C@H](C)C2CC2)c1OCOP(=O)([O-])[O-].[Na+].[Na+]` [Compound 78], for which the MTD in data set [1] (both, intravenous) is 40 mg/kg. The LD50 in data set [1] (both) turned out to be 63.7 mg/kg. Besides, in data set [2] (setting [3]), the ED50 amounted to 15.9 mg/kg. In addition, in data set [2] (setting [4]), the Anesthesia induction time worked out at 65.2 s and the Anesthesia maintenance time came to 2634.6 s. In data set [2] (prodrugs), the SI came to 2.9 and the TI turned out to be 4.0.

On to `CC[C@H](C)c1cccc([C@H](C)C2CC2)c1OCOP(=O)([O-])[O-].[Na+].[Na+]` [Compound 79], for which the MTD in data set [1] (both, intravenous) is 60 mg/kg. For the same compound, the LD50 in data set [1] (both) was 91.8 mg/kg. Also, the ED50 in data set [2] (setting [3]) turned out to be 24.3 mg/kg. Moreover, in data set [2] (setting [4]), the Anesthesia induction time was found to be 72.5 s and the Anesthesia maintenance time turned out to be 2252.1 s. Besides, in data set [2] (prodrugs), the SI came out at 2.1 and the TI is on record as 3.8.
